In patent US20090137493A1, “Inhibition of tumor metastases using protein kinase C (PKC) inhibitors” (priority 2007, published 2009):
Bridges are numbered along the chain shown (N, C = ends). Where no end group is shown, it is not given here.

What was measured:
tumor cells = test: Survival of animals after intravenous administration of tumor cells; assay type: in vivo, mice; conditions: versus saline (PBS)
Experimental: FIG. 9 is a graph showing the percent surviving animals in the time (in days) following intravenous administration of tumor cells. The mice were treated with saline (squares; PBS) or the αV5-3-TAT peptide (circles; peptide).

JC cells = test: Wound healing (migration) assay, JC; assay type: cell-based, mouse; conditions: peptide 1 uM, re-applied every 2 h for 8 h
Experimental: FIGS. 15A-15D are micrographs showing the efficacy of TAT carrier peptide (TAT; FIG. 15A), αV5-3-TAT peptide (Alpha; FIG. 15B), βIIV5-3 peptide (Beta2; FIG. 15C), and εV1-2 (Epsilon; FIG. 15D) on JC cell migration.
To investigate the role of PKC inhibitors in reducing the migration of tumor cells, in vitro migration assays were performed using MDA-MB-231 breast cancer cells (FIGS. 12A-12D), MCF-7 breast cancer cell (FIGS. 13A-13D), JC cells (FIGS. 15A-15D), and 4T1 cells (FIGS. 16A-16D), in the presence of TAT carrier peptide (TAT), αV5-3-TAT peptide (Alpha), βIIV5-3 peptide (Beta2), or εV1-2 peptide (Epsilon).
Wound healing assay: Human or mouse breast cancer cell lines were grown in 6-well plates until about 90% confluent. Cells were then grown in serum free media overnight, before media was changed to media +1% FBS and peptide PKC inhibitors added (1 uM), at the same time a pipette tip was drawn across the cell layer to create a scrape ‘wound’. PKC inhibitors were re-applied every 2 h for a total of 8 h, before cells were left for a further 12 h and then the scrape was examined under phase contrast microscopy.

YGRKKRRQRRR-CC-QLVIAN (YGRKKRRQRRRCCQLVIAN; disulfide 12-13 (inferred)) [αV5-3-TAT]
survival time (tumor cells): longer survival times
migration of JC cells (JC cells): reduced
